Source: PubChem BioAssay (NCI)
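Step 1: Grow cells in 96-well plates. Step 2: Expose to compound for 48 hours at 5 concentrations. Step 3: Interpolate endpoints linearly; if unreached, use highest concentration. The concentration for 50% growth inhibition is given as GI50. TGI: total growth inhibition.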

Columns and labels:
Experiment in all cases: NCI anticancer screen, dose series, 48 h
[1] = tested on: 786-0 renal
[2] = tested on: A498 renal
[3] = tested on: A549 NSCLC
[4] = tested on: ACHN renal
[5] = tested on: BT-549 breast
[6] = tested on: CAKI-1 renal
[7] = tested on: CCRF-CEM leukemia
[8] = tested on: COLO 205 colon
[9] = tested on: DU-145 prostate
[10] = tested on: EKVX NSCLC
[11] = tested on: HCC-2998 colon
[12] = tested on: HCT-116 colon
[13] = tested on: HCT-15 colon
[14] = tested on: HL-60(TB) leukemia
[15] = tested on: HOP-62 NSCLC
[16] = tested on: HOP-92 NSCLC
[17] = tested on: HS 578T breast
[18] = tested on: HT29 colon
[19] = tested on: IGROV1 ovarian
[20] = tested on: K-562 leukemia
[21] = tested on: KM12 colon
[22] = tested on: LOX IMVI melanoma
[23] = tested on: M14 melanoma
[24] = tested on: MALME-3M melanoma
[25] = tested on: MCF7 breast
[26] = tested on: MDA-MB-231 breast
[27] = tested on: MDA-MB-435
[28] = tested on: MOLT-4 leukemia
[29] = tested on: NCI-H226 lung
[30] = tested on: NCI-H23 lung
[31] = tested on: NCI-H460 lung
[32] = tested on: NCI-H522 lung
[33] = tested on: NCI/ADR-RES ovarian
[34] = tested on: OVCAR-3 ovarian
[35] = tested on: OVCAR-4 ovarian
[36] = tested on: OVCAR-5 ovarian
[37] = tested on: OVCAR-8 ovarian
[38] = tested on: PC-3 prostate
[39] = tested on: RPMI-8226 leukemia
[40] = tested on: RXF 393 renal
[41] = tested on: SF-268 CNS
[42] = tested on: SF-295 CNS
[43] = tested on: SF-539 CNS
[44] = tested on: SK-MEL-2 melanoma
[45] = tested on: SK-MEL-28 melanoma
[46] = tested on: SK-MEL-5 melanoma
[47] = tested on: SK-OV-3 ovarian
[48] = tested on: SN12C renal
[49] = tested on: SNB-19 CNS
[50] = tested on: SR leukemia
[51] = tested on: SW-620 colon
[52] = tested on: T-47D breast
[53] = tested on: TK-10 renal
[54] = tested on: U251 CNS
[55] = tested on: UACC-257 melanoma
[56] = tested on: UACC-62 melanoma
[57] = tested on: UO-31 renal
[58] = tested on: SNB-75 CNS

SMILES: C#CCOc1cccc(Nc2ncnc3cc(NC(=O)C=C)ccc23)c1
- GI50 [1]: 5.97 µM
- TGI [1]: 48.1 µM
- GI50 [2]: 4.25 µM
- TGI [2]: 46.6 µM
- GI50 [3]: 9.44 µM
- TGI [3]: > 100 µM
- GI50 [4]: 4.74 µM
- TGI [4]: > 100 µM
- GI50 [5]: 5.3 µM
- TGI [5]: > 100 µM
- GI50 [6]: 6.08 µM
- TGI [6]: > 100 µM
- GI50 [7]: 4.08 µM
- TGI [7]: > 100 µM
- GI50 [8]: 5.41 µM
- TGI [8]: > 100 µM
- GI50 [9]: 3.55 µM
- TGI [9]: > 100 µM
- GI50 [10]: 14.8 µM
- TGI [10]: > 100 µM
- GI50 [11]: 11.6 µM
- TGI [11]: 60.4 µM
- GI50 [12]: 4.02 µM
- TGI [12]: > 100 µM
- GI50 [13]: 3.44 µM
- TGI [13]: > 100 µM
- GI50 [14]: 3.84 µM
- TGI [14]: 45.7 µM
- GI50 [15]: 13.4 µM
- TGI [15]: > 100 µM
- GI50 [16]: 4.77 µM
- TGI [16]: 58.4 µM
- GI50 [17]: 5.87 µM
- TGI [17]: 89.8 µM
- GI50 [18]: 3.66 µM
- TGI [18]: > 100 µM
- GI50 [19]: 10.7 µM
- TGI [19]: > 100 µM
- GI50 [20]: 2.79 µM
- TGI [20]: > 100 µM
- GI50 [21]: 10.4 µM
- TGI [21]: > 100 µM
- GI50 [22]: 3.73 µM
- TGI [22]: 17.3 µM
- GI50 [23]: 6.46 µM
- TGI [23]: > 100 µM
- GI50 [24]: 17.6 µM
- TGI [24]: > 100 µM
- GI50 [25]: 3.65 µM
- TGI [25]: > 100 µM
- GI50 [26]: 6.47 µM
- TGI [26]: > 100 µM
- GI50 [27]: 2.08 µM
- TGI [27]: > 100 µM
- GI50 [28]: 4.56 µM
- TGI [28]: 69.1 µM
- GI50 [29]: 29.7 µM
- TGI [29]: > 100 µM
- GI50 [30]: 26.6 µM
- TGI [30]: > 100 µM
- GI50 [31]: 10.4 µM
- TGI [31]: > 100 µM
- GI50 [32]: 2.8 µM
- TGI [32]: 34.2 µM
- GI50 [33]: 9.66 µM
- TGI [33]: > 100 µM
- GI50 [34]: 3.7 µM
- TGI [34]: 74.6 µM
- GI50 [35]: 29.6 µM
- TGI [35]: > 100 µM
- GI50 [36]: 14.1 µM
- TGI [36]: > 100 µM
- GI50 [37]: 7.72 µM
- TGI [37]: 57.8 µM
- GI50 [38]: 8.36 µM
- TGI [38]: > 100 µM
- GI50 [39]: 4.56 µM
- TGI [39]: 38.8 µM
- GI50 [40]: 2.44 µM
- TGI [40]: 13.3 µM
- GI50 [41]: 12.6 µM
- TGI [41]: > 100 µM
- GI50 [42]: 14.6 µM
- TGI [42]: > 100 µM
- GI50 [43]: 2.89 µM
- TGI [43]: 14 µM
- GI50 [44]: 20.9 µM
- TGI [44]: > 100 µM
- GI50 [45]: 23 µM
- TGI [45]: > 100 µM
- GI50 [46]: 17.3 µM
- TGI [46]: > 100 µM
- GI50 [47]: 7.88 µM
- TGI [47]: > 100 µM
- GI50 [48]: 7.63 µM
- TGI [48]: > 100 µM
- GI50 [49]: 23.8 µM
- TGI [49]: > 100 µM
- GI50 [50]: 2.11 µM
- TGI [50]: > 100 µM
- GI50 [51]: 3.15 µM
- TGI [51]: 27.8 µM
- GI50 [52]: 3.98 µM
- TGI [52]: > 100 µM
- GI50 [53]: 4.05 µM
- TGI [53]: 35.6 µM
- GI50 [54]: 17.4 µM
- TGI [54]: > 100 µM
- GI50 [55]: 32.3 µM
- TGI [55]: > 100 µM
- GI50 [56]: 9.82 µM
- TGI [56]: > 100 µM
- GI50 [57]: 3.51 µM
- TGI [57]: 75.6 µM

SMILES: CC(C)(C)C1=CC(=C2C=Cc3cc(O)ccc3O2)C=C(C(C)(C)C)C1=O
- TGI [1]: 2.68 µM
- TGI [2]: 2.85 µM
- TGI [3]: 3.04 µM
- TGI [4]: 3.06 µM
- TGI [5]: 3.55 µM
- TGI [6]: 3.11 µM
- TGI [7]: 3.45 µM
- TGI [8]: 3.25 µM
- TGI [9]: 3.03 µM
- TGI [10]: 3.5 µM
- TGI [11]: 2.54 µM
- TGI [12]: 2.43 µM
- TGI [13]: 5.51 µM
- TGI [14]: 3.15 µM
- TGI [15]: 4.02 µM
- TGI [16]: 3.19 µM
- TGI [17]: 8.22 µM
- TGI [18]: 3.59 µM
- TGI [19]: 3.04 µM
- TGI [20]: 8.51 µM
- TGI [21]: 3.73 µM
- TGI [22]: 3.03 µM
- TGI [23]: 3.29 µM
- TGI [24]: 3.16 µM
- TGI [25]: 3.02 µM
- TGI [26]: 3.18 µM
- TGI [27]: 3.55 µM
- TGI [29]: 3.43 µM
- TGI [30]: 3.58 µM
- TGI [31]: 2.7 µM
- TGI [32]: 2.99 µM
- TGI [33]: 4.9 µM
- TGI [34]: 2.72 µM
- TGI [35]: 3.04 µM
- TGI [36]: 3.94 µM
- TGI [37]: 3.79 µM
- TGI [38]: 3.01 µM
- TGI [39]: 4.21 µM
- TGI [40]: 3.16 µM
- TGI [41]: 3.87 µM
- TGI [42]: 3.45 µM
- TGI [43]: 3.4 µM
- TGI [44]: 3.09 µM
- TGI [45]: 3.64 µM
- TGI [46]: 2.94 µM
- TGI [47]: 4.09 µM
- TGI [48]: 3.02 µM
- TGI [49]: 3.3 µM
- TGI [58]: 3.3 µM
- TGI [50]: 3.86 µM
- TGI [51]: 3.48 µM
- TGI [52]: 2.16 µM
- TGI [53]: 3.09 µM
- TGI [54]: 2.69 µM
- TGI [55]: 3.07 µM
- TGI [56]: 2.76 µM
- TGI [57]: 2.5 µM
